Data on nine compounds can be found in ChEMBL document CHEMBL5143537, “Quinazoline-based hydroxamic acid derivatives as dual histone methylation and deacetylation inhibitors for potential anticancer agents” (Bioorg Med Chem, 2022).

The subject of one series is HeLa. The experiment in a line: Antiproliferative activity against human HeLa cells measured after 72 hrs by MTT assay. Type of series: functional, cell-based. For orientation: Tetrazolium dyes change colour on reduction, which living cells bring about.
A further series deals with A-431. The experiment in a line: Antiproliferative activity against human A-431 cells measured after 72 hrs by MTT assay. Type of series: functional, cell-based. The following applies: A-431, 72 h.
The test system of a further series is MDA-MB-231. Kind of series: Antiproliferative activity against human MDA-MB-231 cells measured after 72 hrs by MTT assay. It is filed as functional, cell-based. The following applies: MDA-MB-231, 72 h.
For series [1], the target named is T1, Histone-lysine N-methyltransferase EHMT1 (Homo sapiens, UniProt Q9H9B1).
T1 sequence (Q9H9B1 whole entry): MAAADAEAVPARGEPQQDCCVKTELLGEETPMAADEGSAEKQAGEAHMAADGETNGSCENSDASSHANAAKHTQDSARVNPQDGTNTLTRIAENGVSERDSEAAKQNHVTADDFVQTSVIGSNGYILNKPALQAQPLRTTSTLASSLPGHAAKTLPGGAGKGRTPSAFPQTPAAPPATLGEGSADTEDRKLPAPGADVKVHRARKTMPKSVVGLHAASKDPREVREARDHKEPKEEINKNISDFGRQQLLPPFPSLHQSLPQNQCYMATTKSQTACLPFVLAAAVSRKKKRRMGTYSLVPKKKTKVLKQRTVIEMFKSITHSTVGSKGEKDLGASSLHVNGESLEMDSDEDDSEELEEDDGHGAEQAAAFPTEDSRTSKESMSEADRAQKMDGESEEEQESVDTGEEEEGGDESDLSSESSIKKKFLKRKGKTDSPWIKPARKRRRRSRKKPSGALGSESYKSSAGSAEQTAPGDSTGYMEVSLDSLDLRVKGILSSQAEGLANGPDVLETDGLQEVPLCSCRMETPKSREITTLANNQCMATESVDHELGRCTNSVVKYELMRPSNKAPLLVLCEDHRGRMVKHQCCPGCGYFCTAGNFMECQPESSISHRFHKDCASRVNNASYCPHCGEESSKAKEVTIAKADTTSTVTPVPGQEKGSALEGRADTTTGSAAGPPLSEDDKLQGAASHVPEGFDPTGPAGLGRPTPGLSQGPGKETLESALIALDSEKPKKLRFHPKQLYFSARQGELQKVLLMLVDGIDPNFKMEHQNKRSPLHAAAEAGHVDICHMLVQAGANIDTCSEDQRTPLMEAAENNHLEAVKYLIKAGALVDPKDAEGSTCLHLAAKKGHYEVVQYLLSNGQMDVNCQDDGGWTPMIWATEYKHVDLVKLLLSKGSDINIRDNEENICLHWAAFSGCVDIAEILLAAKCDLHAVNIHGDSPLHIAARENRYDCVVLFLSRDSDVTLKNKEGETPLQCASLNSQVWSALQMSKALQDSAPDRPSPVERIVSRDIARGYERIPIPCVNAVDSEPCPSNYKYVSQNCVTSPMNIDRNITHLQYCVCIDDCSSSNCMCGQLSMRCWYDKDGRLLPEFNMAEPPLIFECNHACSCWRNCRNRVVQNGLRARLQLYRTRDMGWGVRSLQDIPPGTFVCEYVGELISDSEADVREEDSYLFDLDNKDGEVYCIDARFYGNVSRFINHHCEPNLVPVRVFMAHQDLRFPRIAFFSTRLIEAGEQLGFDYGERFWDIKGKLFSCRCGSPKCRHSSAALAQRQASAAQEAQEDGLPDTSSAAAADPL
The experiment in a line: Inhibition of GLP (unknown origin).

The target of another series is Histone deacetylase 1 (Homo sapiens, UniProt Q13547). Kind of series: Inhibition of recombinant human HDAC1 expressed in baculovirus infection system using Ac-peptide-AMC as substrate preincubated for 15 mins followed by substrate addition and measured after 60 mins by fluorescence assay.
The test system of the next series is K562. Kind of series: Antiproliferative activity against human K562 cells measured after 72 hrs by MTT assay. It is filed as functional, cell-based. The following applies: K562, 72 h.
In another series the test system is HepG2. The experiment in a line: Antiproliferative activity against human HepG2 cells measured after 72 hrs by MTT assay. It is filed as functional, cell-based. The following applies: HepG2, 72 h.
Another series has as its system HCT-116. Kind of series: Antiproliferative activity against human HCT-116 cells measured after 72 hrs by MTT assay. Type of series: functional, cell-based. The following applies: HCT-116, 72 h.
Series [2] addresses T2, Protein deacetylase HDAC6 (Homo sapiens, UniProt Q9UBN7).
T2 sequence (Q9UBN7 whole entry): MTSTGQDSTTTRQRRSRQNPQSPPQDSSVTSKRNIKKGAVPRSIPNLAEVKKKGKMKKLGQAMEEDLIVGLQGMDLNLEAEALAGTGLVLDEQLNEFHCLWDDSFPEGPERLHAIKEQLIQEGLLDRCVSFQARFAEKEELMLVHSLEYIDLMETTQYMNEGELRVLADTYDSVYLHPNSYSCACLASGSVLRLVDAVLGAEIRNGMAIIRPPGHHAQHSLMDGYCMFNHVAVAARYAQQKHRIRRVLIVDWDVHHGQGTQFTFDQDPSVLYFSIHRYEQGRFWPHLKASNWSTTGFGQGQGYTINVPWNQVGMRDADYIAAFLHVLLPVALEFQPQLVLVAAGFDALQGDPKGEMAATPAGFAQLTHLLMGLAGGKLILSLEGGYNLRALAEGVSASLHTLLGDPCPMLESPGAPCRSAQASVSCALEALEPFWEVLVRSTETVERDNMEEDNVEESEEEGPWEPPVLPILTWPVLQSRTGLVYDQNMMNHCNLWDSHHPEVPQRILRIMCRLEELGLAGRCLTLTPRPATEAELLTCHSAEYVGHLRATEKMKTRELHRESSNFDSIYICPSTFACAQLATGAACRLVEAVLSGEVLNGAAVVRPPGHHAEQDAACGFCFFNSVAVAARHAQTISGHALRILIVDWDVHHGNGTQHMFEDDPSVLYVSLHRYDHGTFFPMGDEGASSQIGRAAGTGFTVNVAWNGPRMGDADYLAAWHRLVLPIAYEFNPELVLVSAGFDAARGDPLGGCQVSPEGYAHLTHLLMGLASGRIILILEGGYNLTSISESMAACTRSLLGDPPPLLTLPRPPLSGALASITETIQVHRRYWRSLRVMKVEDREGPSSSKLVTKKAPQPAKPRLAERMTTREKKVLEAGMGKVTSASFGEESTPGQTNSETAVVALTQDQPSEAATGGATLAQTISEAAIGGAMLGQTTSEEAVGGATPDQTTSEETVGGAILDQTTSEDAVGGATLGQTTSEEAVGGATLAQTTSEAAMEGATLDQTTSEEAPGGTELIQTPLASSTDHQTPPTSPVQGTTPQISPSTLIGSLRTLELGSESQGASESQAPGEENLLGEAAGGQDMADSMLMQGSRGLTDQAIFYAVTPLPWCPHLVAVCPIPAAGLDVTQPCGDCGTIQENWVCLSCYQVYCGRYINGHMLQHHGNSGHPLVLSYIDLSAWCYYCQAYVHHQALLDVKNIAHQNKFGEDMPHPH
Kind of series: Inhibition of recombinant HDAC6 (unknown origin) using Ac-peptide-AMC as substrate preincubated for 15 mins followed by substrate addition and measured after 60 mins by fluorescence assay.

Series [3] can be described thus: Cytotoxicity against human HL7702 cells measured after 72 hrs by MTT assay. The following applies: HL7702 (L02) cells.
The subject of the next series is HT-29. Kind of series: Antiproliferative activity against human HT-29 cells measured after 72 hrs by MTT assay. It is filed as functional, cell-based. Particulars: HT-29, 72 h.
A short description of series [4]: Half life in rat liver microsomes at 1 uM by LC-MS/MS analysis. Type of series: ADME, Microsome. (In general: Liver microsomes are vesicles of endoplasmic reticulum, rich in cytochrome P450 enzymes.)
Series [5] can be described thus: Intrinsic clearance in rat liver microsomes at 1 uM by LC-MS/MS analysis. It is filed as ADME, Microsome. The following applies: read-out: CLH.

Histone deacetylase 1, sequence (Q13547 whole entry): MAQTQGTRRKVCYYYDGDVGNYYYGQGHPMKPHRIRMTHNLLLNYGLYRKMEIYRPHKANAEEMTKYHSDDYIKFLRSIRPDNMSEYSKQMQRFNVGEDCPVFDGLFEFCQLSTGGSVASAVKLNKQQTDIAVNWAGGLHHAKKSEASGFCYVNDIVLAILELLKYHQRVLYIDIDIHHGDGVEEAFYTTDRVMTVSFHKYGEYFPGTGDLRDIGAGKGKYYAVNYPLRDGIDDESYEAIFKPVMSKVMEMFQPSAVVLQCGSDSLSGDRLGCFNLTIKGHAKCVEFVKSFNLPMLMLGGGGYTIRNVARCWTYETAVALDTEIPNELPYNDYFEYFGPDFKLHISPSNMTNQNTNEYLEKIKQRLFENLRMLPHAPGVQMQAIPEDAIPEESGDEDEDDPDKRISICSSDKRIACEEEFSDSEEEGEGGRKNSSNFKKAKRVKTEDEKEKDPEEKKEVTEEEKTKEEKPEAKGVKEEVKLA

For orientation: IC50 means the midpoint of a concentration-inhibition curve. On to `COc1cc2nc(NCCCCCCC(=O)NO)nc(NC3CCN(C(C)C)CC3)c2cc1OC`, for which the half-maximal inhibitory concentration (IC50) with HeLa is 17.4 µM; in the series with A-431, 23.1 µM; in the series on MDA-MB-231, above 50 µM; in series [1], 0.011 µM; at Histone deacetylase 1, 0.0042 µM; with K562, 5.21 µM. In addition, the 50% inhibitory concentration (IC50) with HepG2 was 4.72 µM; in the series on HCT-116, 3.75 µM; in series [2], 0.012 µM; in the series with HT-29, 4.21 µM. Moreover, the IC50 at 72 h in [3] is 12.7 µM.

On to `COc1cc2c(NC3CCN(C(C)C)CC3)nc(N3CCC(F)(F)CC3)nc2cc1OCCCN1CCCC1`, for which the half-maximal inhibitory concentration (IC50) in the series with HeLa came to 1.74 µM; in the series with A-431 it was 3.38 µM; with MDA-MB-231, 3.23 µM; in the series on K562, 0.92 µM; in the series on HepG2, 2.69 µM; in the series on HCT-116, 5.01 µM. In the series on HT-29, this compound yielded an IC50 of 1.35 µM. Further, it took 3.23 µM to reach half-maximal inhibition in series [3] (IC50 at 72 h).

Broadly, the half-life is the time in which the quantity being followed falls by half. For `O=C(c1ccc(F)cc1)C1CCN(CCn2c(=O)[nH]c3ccccc3c2=O)CC1` [KETANSERIN], the half-life at 1 µM in series [4] stood at 16.2 min. Further, the CLint scaled at 1 µM in series [5] is 153 mL/min/kg.

On to `COc1cc2nc(N3CCN(Cc4ccc(/C=C/C(=O)NO)cc4)CC3)nc(NC3CCN(Cc4ccccc4)CC3)c2cc1OC`, for which the IC50 in the series with HeLa is above 50 µM; with A-431 it was above 50 µM; in the series with MDA-MB-231, above 50 µM; in series [1], 0.19 µM; at Histone deacetylase 1 it was 0.094 µM; with K562 it was above 50 µM. Also, the concentration for half-maximal inhibition (IC50) was above 50 µM with HepG2, above 50 µM in the series on HCT-116, 0.05 µM in [2] and above 50 µM with HT-29. The compound further showed a half-inhibitory concentration (IC50) at 72 h in [3] above 50 µM.

Take `COc1cc2nc(NCCCCCC(=O)NO)nc(NC3CCN(Cc4ccccc4)CC3)c2cc1OC`: the half-inhibitory concentration (IC50) with HeLa was 8.85 µM; in the series with A-431, 16.9 µM; in the series with MDA-MB-231, 7.89 µM; in series [1] it was 0.0092 µM; at Histone deacetylase 1, 0.0032 µM; with K562 it was 7.89 µM. Moreover, the IC50 was determined as 2.13 µM in the series with HepG2, 44.5 µM in the series on HCT-116, 0.017 µM in series [2] and 12.9 µM in the series with HT-29. The compound further had a concentration for half-maximal inhibition (IC50) at 72 h in [3] of 19.8 µM.

Consider `COc1cc2nc(NCCCCCC(=O)NO)nc(NC3CCN(C)CC3)c2cc1OC`, for which the IC50 in the series with HeLa came to 6.39 µM; with A-431, 5.86 µM; with MDA-MB-231 it was 44.2 µM; in series [1], 0.011 µM; at Histone deacetylase 1, 0.0013 µM; with K562 it was 9.21 µM. For the same compound, the IC50 was 13.4 µM in the series with HepG2, 6.93 µM with HCT-116, 0.051 µM in [2] and 5.31 µM in the series on HT-29. Also, the IC50 at 72 h in series [3] turned out to be 31.7 µM.

Turning to `COc1cc2nc(NCCCCCC(=O)NO)nc(NC3CCN(C(C)C)CC3)c2cc1OC`, the IC50 is 37.4 µM in the series on HeLa; above 50 µM with A-431; above 50 µM with MDA-MB-231; 0.097 µM in series [1]; 0.0084 µM on Histone deacetylase 1; above 50 µM in the series on K562. The IC50 in the series on HepG2 is above 50 µM; with HCT-116 it was 25.7 µM; in series [2], 0.131 µM; with HT-29 it was 47.4 µM. Further, the IC50 at 72 h in [3] was above 50 µM.

Take `COc1cc2nc(N3CCN(CCCCCC(=O)NO)CC3)nc(NC3CCN(C(C)C)CC3)c2cc1OC`: the IC50 with HeLa is 29.7 µM; in the series with A-431, above 50 µM; in the series on MDA-MB-231 it was above 50 µM; in series [1], 0.0016 µM; at Histone deacetylase 1, 0.051 µM; in the series on K562 it was 10.1 µM. In addition, the IC50 is 12.1 µM in the series on HepG2, above 50 µM in the series on HCT-116, 0.024 µM in [2] and 8 µM with HT-29. In series [3], this compound gave a concentration for half-maximal inhibition (IC50) at 72 h above 50 µM.

As for `COc1cc2nc(NCCCCCCC(=O)NO)nc(NC3CCN(C)CC3)c2cc1OC`, the IC50 in the series with HeLa is 9.49 µM; with A-431, above 50 µM; in the series on MDA-MB-231, above 50 µM; in series [1], 0.021 µM; at Histone deacetylase 1, 0.0058 µM; in the series on K562, 17 µM. Moreover, the half-maximal inhibitory concentration (IC50) in the series with HepG2 was 6.76 µM; with HCT-116, above 50 µM; in series [2] it was 0.016 µM; in the series on HT-29, 12.9 µM. This compound also had an IC50 at 72 h in series [3] above 50 µM.
